According to ChEMBL document CHEMBL5291721, “A preclinical secondary pharmacology resource illuminates target-adverse drug reaction associations of marketed drugs” (Nat Commun, 2023):

Legend:
[1] = biological target: Vascular endothelial growth factor receptor 2 (Homo sapiens, UniProt P35968); assay type: functional
[2] = biological target: T1, Adenosine receptor A3 (Homo sapiens, UniProt P0DMS8)
T1 sequence (P0DMS8 whole entry): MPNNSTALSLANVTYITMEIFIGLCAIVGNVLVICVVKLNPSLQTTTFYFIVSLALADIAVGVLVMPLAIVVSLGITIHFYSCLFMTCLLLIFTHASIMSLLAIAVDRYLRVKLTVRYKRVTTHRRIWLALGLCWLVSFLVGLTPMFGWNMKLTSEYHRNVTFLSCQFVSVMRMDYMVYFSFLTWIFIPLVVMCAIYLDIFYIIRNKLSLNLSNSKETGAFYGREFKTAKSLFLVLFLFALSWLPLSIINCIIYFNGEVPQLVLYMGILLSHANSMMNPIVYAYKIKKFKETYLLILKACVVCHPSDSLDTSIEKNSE

[3] = biological target: T2, 5-hydroxytryptamine receptor 3A (Homo sapiens, UniProt P46098); assay type: functional
T2 sequence (P46098 whole entry): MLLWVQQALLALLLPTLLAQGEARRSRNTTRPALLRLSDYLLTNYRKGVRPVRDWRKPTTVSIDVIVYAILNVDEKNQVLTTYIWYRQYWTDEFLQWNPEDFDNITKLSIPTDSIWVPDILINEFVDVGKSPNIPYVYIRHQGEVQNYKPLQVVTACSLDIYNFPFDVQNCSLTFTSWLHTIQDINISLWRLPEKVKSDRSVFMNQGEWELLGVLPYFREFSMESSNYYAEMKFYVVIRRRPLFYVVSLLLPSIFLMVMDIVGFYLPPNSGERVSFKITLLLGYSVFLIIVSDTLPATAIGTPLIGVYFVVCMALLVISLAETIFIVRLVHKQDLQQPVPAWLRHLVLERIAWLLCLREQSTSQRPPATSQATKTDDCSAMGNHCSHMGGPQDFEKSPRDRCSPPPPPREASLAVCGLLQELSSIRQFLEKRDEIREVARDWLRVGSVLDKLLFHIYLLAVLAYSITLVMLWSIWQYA

[4] = biological target: Gamma-aminobutyric acid receptor subunit alpha-1 (Rattus norvegicus, UniProt P62813); assay type: functional
Sequence of Gamma-aminobutyric acid receptor subunit alpha-1 (P62813 whole entry): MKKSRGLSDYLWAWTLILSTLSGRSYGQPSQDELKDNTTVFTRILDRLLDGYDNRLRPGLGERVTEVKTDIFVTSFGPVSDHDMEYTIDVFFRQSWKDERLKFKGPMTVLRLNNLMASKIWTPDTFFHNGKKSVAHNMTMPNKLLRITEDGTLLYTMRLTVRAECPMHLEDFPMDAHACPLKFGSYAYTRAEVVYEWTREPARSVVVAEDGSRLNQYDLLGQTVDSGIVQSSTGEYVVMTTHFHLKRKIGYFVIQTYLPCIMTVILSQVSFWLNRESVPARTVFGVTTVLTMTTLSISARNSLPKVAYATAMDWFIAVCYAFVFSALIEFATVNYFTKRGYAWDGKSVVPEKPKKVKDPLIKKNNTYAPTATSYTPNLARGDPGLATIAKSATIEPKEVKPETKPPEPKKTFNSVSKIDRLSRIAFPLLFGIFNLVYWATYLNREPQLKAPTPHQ

[5] = biological target: T3, 5-hydroxytryptamine receptor 2C (Homo sapiens, UniProt P28335)
T3 sequence (P28335 whole entry): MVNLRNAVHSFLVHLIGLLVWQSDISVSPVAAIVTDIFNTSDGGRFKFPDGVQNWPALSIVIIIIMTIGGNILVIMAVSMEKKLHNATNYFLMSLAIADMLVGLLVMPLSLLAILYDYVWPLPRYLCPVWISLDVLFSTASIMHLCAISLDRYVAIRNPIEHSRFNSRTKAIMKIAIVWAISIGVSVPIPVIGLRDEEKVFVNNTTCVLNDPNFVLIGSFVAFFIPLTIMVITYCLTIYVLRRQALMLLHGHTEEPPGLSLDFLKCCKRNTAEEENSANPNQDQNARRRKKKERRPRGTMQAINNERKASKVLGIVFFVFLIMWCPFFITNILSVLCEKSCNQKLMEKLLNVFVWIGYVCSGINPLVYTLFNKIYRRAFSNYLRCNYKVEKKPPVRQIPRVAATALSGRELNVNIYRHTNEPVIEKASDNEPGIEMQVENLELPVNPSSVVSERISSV

[6] = biological target: D(1A) dopamine receptor (Homo sapiens, UniProt P21728); assay type: functional, cell-based
Sequence of D(1A) dopamine receptor (P21728 whole entry): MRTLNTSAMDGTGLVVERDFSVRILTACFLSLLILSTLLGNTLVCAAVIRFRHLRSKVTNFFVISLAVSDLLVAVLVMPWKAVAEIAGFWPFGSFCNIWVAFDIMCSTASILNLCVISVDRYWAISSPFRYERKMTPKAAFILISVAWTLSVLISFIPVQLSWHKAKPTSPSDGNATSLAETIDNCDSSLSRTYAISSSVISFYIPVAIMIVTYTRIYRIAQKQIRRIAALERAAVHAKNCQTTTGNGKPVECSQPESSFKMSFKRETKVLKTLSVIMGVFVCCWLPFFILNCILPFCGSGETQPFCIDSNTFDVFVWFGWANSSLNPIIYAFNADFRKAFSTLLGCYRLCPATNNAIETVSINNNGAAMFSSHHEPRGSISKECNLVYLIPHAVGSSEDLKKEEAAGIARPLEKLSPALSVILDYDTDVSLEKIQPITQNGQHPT

[7] = biological target: Sodium-dependent serotonin transporter (Homo sapiens, UniProt P31645)
[8] = biological target: T4, Adenosine receptor A1 (Homo sapiens, UniProt P30542)
T4 sequence (P30542 whole entry): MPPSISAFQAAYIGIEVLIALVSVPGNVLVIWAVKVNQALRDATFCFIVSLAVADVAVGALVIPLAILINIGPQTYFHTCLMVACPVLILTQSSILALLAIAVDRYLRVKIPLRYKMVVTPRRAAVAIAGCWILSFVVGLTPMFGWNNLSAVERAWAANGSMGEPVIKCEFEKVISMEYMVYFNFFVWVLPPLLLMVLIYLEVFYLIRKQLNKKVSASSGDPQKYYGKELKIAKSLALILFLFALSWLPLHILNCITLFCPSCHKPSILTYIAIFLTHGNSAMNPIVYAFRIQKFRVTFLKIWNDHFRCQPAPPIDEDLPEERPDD

[9] = biological target: T5, Neuropeptide Y receptor type 1 (Homo sapiens, UniProt P25929)
T5 sequence (P25929 whole entry): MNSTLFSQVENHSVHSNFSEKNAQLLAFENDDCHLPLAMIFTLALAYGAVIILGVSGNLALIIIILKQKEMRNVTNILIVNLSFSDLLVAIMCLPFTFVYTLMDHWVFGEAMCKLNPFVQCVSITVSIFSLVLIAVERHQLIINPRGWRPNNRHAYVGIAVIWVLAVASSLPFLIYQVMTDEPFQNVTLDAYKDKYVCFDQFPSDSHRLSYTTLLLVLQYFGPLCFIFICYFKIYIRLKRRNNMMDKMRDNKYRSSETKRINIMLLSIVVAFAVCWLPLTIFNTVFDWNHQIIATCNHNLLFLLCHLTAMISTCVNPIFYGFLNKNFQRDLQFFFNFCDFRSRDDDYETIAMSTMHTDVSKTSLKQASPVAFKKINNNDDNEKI

[10] = biological target: Histamine H3 receptor (Homo sapiens, UniProt Q9Y5N1)
Sequence of Histamine H3 receptor (Q9Y5N1 whole entry): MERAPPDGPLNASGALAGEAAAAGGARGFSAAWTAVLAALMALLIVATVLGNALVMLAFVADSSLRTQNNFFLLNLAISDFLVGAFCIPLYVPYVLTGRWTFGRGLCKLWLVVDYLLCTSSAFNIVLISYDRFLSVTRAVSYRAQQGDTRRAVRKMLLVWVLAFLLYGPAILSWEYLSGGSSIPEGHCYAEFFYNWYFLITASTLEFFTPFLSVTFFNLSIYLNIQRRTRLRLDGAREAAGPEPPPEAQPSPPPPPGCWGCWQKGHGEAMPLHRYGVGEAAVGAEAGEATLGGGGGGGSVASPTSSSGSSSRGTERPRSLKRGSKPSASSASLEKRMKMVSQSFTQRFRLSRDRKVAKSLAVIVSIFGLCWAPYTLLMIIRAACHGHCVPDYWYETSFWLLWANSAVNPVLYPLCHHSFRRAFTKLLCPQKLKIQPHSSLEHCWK

[11] = biological target: Melanocortin receptor 3 (Homo sapiens, UniProt P41968)
[12] = biological target: Voltage-dependent L-type calcium channel subunit alpha-1C (Rattus norvegicus, UniProt P22002); assay type: functional
Sequence of Voltage-dependent L-type calcium channel subunit alpha-1C (P22002 whole entry): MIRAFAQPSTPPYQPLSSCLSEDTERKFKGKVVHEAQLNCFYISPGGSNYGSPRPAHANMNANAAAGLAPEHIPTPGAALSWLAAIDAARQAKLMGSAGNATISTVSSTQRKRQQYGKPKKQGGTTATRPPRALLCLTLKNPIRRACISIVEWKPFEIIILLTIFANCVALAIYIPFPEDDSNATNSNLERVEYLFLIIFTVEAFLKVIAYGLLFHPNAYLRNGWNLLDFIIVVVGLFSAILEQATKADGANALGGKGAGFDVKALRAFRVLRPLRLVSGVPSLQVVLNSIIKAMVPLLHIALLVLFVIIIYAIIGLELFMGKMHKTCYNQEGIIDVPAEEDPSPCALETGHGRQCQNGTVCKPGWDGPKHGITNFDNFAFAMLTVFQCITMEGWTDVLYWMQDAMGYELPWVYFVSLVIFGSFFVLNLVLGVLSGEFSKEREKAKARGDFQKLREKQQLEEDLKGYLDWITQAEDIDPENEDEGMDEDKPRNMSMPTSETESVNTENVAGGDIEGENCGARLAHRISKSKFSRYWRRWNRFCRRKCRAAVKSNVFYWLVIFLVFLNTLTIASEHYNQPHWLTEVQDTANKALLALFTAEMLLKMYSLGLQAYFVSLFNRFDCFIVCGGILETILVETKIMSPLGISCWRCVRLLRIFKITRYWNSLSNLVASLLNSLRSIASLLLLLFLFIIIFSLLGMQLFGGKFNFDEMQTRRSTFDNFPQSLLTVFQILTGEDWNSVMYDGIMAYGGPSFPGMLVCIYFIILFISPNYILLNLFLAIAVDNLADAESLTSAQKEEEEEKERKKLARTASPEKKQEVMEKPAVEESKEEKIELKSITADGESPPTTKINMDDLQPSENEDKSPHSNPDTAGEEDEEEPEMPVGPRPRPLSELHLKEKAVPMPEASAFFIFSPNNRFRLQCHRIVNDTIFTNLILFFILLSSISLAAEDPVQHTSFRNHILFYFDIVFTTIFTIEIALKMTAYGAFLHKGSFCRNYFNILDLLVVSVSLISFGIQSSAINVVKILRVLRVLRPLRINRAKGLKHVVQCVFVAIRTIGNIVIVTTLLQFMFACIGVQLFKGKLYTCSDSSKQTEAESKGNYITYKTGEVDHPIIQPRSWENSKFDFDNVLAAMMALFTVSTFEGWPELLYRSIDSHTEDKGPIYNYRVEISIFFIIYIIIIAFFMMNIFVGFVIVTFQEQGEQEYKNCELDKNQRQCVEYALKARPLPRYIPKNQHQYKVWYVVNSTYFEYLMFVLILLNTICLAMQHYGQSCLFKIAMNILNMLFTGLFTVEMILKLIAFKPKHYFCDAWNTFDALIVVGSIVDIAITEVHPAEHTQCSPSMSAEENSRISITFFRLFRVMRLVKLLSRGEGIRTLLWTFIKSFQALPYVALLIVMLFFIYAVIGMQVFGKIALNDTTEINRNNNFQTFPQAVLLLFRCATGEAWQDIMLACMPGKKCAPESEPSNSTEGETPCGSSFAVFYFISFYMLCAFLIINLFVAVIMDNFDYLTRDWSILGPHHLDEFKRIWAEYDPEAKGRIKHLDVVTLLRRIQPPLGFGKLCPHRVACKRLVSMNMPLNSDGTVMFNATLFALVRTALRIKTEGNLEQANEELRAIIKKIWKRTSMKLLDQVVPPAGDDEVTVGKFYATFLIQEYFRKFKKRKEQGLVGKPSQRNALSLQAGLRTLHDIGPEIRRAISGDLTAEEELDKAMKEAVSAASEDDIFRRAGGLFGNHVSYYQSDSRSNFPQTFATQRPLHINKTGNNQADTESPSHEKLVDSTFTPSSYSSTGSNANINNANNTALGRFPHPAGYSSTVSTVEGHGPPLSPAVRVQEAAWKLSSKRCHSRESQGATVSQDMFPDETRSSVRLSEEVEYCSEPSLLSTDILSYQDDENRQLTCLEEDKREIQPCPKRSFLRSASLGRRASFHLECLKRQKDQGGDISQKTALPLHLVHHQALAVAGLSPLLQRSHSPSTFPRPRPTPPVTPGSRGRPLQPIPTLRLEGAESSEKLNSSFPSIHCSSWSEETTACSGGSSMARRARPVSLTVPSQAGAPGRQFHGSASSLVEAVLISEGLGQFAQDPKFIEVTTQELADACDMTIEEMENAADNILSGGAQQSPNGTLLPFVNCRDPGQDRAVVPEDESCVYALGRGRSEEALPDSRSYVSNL
Also: assay procedure not described here.

Sequence of Vascular endothelial growth factor receptor 2 (P35968 whole entry): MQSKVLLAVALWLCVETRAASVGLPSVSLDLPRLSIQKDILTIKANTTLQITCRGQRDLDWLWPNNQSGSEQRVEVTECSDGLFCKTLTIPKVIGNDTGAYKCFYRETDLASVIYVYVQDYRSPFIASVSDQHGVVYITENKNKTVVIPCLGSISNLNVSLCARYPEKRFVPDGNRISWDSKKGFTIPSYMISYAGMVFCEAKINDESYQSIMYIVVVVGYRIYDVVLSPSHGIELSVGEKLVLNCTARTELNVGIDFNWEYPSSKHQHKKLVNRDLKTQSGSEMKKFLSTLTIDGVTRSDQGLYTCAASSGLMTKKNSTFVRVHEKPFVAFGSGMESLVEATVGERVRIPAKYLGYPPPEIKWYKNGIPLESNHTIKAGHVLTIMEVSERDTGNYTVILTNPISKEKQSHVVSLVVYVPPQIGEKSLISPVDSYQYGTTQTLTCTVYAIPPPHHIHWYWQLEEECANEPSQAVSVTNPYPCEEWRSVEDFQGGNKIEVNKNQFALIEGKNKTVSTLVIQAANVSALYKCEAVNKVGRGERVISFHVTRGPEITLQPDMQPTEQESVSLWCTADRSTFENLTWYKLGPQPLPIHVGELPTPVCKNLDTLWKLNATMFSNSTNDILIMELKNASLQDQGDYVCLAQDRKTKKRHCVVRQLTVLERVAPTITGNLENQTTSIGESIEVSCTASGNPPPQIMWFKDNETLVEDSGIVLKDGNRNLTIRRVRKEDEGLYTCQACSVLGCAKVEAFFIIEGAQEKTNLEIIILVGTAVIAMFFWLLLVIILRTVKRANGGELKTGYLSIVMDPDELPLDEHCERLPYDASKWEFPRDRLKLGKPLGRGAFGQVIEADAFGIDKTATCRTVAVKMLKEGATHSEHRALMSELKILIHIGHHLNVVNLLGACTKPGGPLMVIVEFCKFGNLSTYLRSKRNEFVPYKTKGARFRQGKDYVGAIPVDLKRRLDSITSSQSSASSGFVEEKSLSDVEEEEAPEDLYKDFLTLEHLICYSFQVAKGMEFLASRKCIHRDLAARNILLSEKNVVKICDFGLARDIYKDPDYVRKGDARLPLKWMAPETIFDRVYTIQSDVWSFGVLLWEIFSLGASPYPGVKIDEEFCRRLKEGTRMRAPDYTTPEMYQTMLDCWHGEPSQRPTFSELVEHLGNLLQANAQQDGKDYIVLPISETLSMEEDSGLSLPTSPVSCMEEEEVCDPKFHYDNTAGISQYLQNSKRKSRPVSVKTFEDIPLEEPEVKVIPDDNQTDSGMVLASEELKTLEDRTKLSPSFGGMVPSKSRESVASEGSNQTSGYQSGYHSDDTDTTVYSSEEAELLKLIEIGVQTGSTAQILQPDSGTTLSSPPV

Row | Compound | AC50 [1] [µM] | AC50 [2] [µM] | AC50 [3] [µM] | AC50 [4] [µM] | AC50 [5] [µM] | AC50 [6] [µM] | AC50 [7] [µM] | AC50 [8] [µM] | AC50 [9] [µM] | AC50 [10] [µM] | AC50 [11] [µM] | AC50 [12] [µM]
1 | Cn1c(=O)c2c(ncn2CC(O)CO)n(C)c1=O (stereo unspecified) [DYPHYLLINE] | > 30 | > 30 |  |  |  |  |  |  |  |  |  | 
2 | CCC(=O)O[C@@H](O[P@](=O)(CCCCc1ccccc1)CC(=O)N1C[C@H](C2CCCCC2)C[C@H]1C(=O)O)C(C)C [FOSINOPRIL] |  |  | > 30 | > 30 | > 30 | > 30 | > 30 |  |  |  |  | 
3 | Nc1nc(O)c2ncn(COC(CO)CO)c2n1 [GANCICLOVIR] |  |  | > 30 | > 30 | > 30 | > 30 |  | > 30 | > 30 | > 30 | > 30 | > 30
4 | CC1(C)O[C@@H]2C[C@H]3[C@@H]4CCC5=CC(=O)CC[C@]5(C)[C@@]4(F)[C@@H](O)C[C@]3(C)[C@]2(C(=O)CCl)O1 [HALCINONIDE] | > 30 | > 30 |  |  |  |  |  |  |  |  |  | 
5 | CC(C)(N)C(=O)N[C@H](Cc1c[nH]c2ccccc12)C(=O)N[C@H](Cc1c[nH]c2ccccc12)NC=O [MACIMORELIN] |  |  |  |  |  |  | > 30 |  |  |  |  | 
6 | CC[C@@H](CO)NC(=O)[C@@H]1C=C2c3cccc4[nH]cc(c34)C[C@H]2N(C)C1 [METHYLERGONOVINE] |  |  | > 30 | > 30 | 0.12 | 0.0031 |  | > 30 | > 30 | > 30 | > 30 | 
7 | CCOc1cc(N)c(Cl)cc1C(=O)NCC1CN(Cc2ccc(F)cc2)CCO1 (stereo unspecified) [MOSAPRIDE] | > 30 | 14.5 |  |  |  |  |  |  |  |  |  | 
8 | CN1CCC[C@H]1c1cccnc1 [NICOTINE] | > 30 | > 30 |  |  |  |  |  |  |  |  |  | 
9 | C#C[C@]1(O)CC[C@H]2[C@@H]3CCC4=C(CCC(=O)C4)[C@H]3CC[C@@]21C [NORETHYNODREL] | > 30 | 10.1 |  |  |  |  |  |  |  |  |  | 
10 | CNCCC=C1c2ccccc2CCc2ccccc21 [NORTRIPTYLINE] |  |  | > 30 | > 30 |  | > 30 |  | > 30 | > 30 | > 30 | 11 | > 30
11 | CN(C)c1cc(CNCC(C)(C)C)c(O)c2c1C[C@H]1C[C@H]3[C@H](N(C)C)C(O)=C(C(N)=O)C(=O)[C@@]3(O)C(O)=C1C2=O [OMADACYCLINE] |  |  | 25 | > 30 | > 30 | > 30 | > 30 | > 30 | > 30 | 24 | > 30 | 
12 | COc1ccc(Cc2nccc3cc(OC)c(OC)cc23)cc1OC [PAPAVERINE] |  |  | > 30 | > 30 | > 30 | > 30 |  | > 30 | > 30 | > 30 | > 30 | > 30
13 | CNC(=O)c1cc(Oc2ccc(NC(=O)Nc3ccc(Cl)c(C(F)(F)F)c3)c(F)c2)ccn1 [REGORAFENIB] |  |  |  |  |  | > 30 | > 30 |  |  |  | > 30 | 
14 | O=C(Nc1c(Cl)cncc1Cl)c1ccc(OC(F)F)c(OCC2CC2)c1 [ROFLUMILAST] |  |  | > 30 | > 30 | > 30 | > 30 |  | > 30 | > 30 | > 30 | > 30 | 
15 | CCCCCCCCNC(C)C(O)c1ccc(SC(C)C)cc1 (stereo unspecified) [SULOCTIDIL] | > 30 | 9.82 |  |  |  |  |  |  |  |  |  | 
16 | CN1CCN(CCCN2c3ccccc3Sc3ccc(S(=O)(=O)N(C)C)cc32)CC1 [THIOPROPERAZINE] |  |  | > 30 | > 30 | 6.14 | > 30 | 17.3 |  |  |  |  | 
17 | Cc1cc(CC(=O)O)n(C)c1C(=O)c1ccc(Cl)cc1 [ZOMEPIRAC] |  |  | > 30 | > 30 | > 30 | > 30 |  | > 30 | > 30 | > 30 | > 30 | > 30
